Cytotoxicity data for 100 molecules are collected here from ChEMBL document CHEMBL3507680, “University of Dundee, Gates Library screen for HepG2 cell viability”.

The structures appear in SMILES notation.

The data set can be described thus: Human HepG2 cell viability assay in 384 well format. Format: toxicity, cell-based. Details: dose 125 nL, time 70.5 hour; concentration not given beside the values. The following applies: HepG2 cells, read-out: Inhibition.
Turning to `Cc1nn(C)c2c(=O)n(CC(=O)NC3CCCCC3)ccc12`, the cytotoxicity at 70.5 h was -1.28%.

As for `CCC(C)NC(=O)Cn1ccc2sc(C)cc2c1=O` (stereo not given), the cytotoxicity at 70.5 h is -0.388%. For the molecule `CN1CCCC1CCNC(=O)Nc1ccccc1` (stereo not given), the cytotoxicity at 70.5 h was -5%. As for `CC(=O)N1CC=C(n2c(=O)[nH]c3ccccc32)CC1`, the cytotoxicity at 70.5 h is -5.58%. With `Cc1ccccc1CSc1ncccc1C(=O)N(C)C`, the cytotoxicity at 70.5 h is -2.93%. Consider `COc1ccc(C(=O)Nc2cccc(C(N)=O)c2)c(OC)n1`, for which the cytotoxicity at 70.5 h amounted to 9.82%. On to `COc1ccc(C(=O)N(CCO)Cc2ccccc2)c(OC)n1`, for which the cytotoxicity at 70.5 h was 21.2%. Next, `CSc1ncccc1C(=O)NCc1ccc(N(C)C)cc1`: 40.2%. With `O=C(Nc1cccc2c1CCCC2)c1cccnc1N1CCCNCC1`, the cytotoxicity at 70.5 h is -5.23%. On to `CCC(CC)NC(=O)c1cccnc1N1CCCC1c1ccccn1` (stereo not given), for which the cytotoxicity at 70.5 h stood at 16.4%. In the case of `CCCNc1ccc(C(=O)NCCc2cccc(Cl)c2)cn1`, the cytotoxicity at 70.5 h is -4.77%.

On to `O=C(NC[C@@H]1CCCO1)c1cccnc1N1CCCC1c1ccccn1` (stereo not given in full), for which the cytotoxicity at 70.5 h is -3.08%. On to `O=C1CC2(CCN(C(=O)c3ccccn3)CC2)Oc2c(Cl)cc(Cl)cc21`, for which the cytotoxicity at 70.5 h is -6.72%. For the molecule `COc1ccc2c(c1)OC1(CCN(Cc3ccc(C)cc3)CC1)CC2=O`, the cytotoxicity at 70.5 h stood at 7.29%. With `CN(C)C(=O)CN1CCC2(CC1)CC(=O)c1ccc3ccccc3c1O2` the figure was -6.26%; with `O=C(c1cccnc1SCc1ccccc1)N1CCOCC1`, 0.0391%. On to `O=C(NCCCn1ccnc1)c1cccnc1OCC(F)(F)F`, for which the cytotoxicity at 70.5 h was determined as 4.36%. On to `CCCSc1ncccc1C(=O)NCc1ccc(S(N)(=O)=O)cc1`, for which the cytotoxicity at 70.5 h is -4.05%. `O=C(N[C@H]1CCCC[C@@H]1O)c1cccc(-c2nc3ccccc3[nH]2)c1`: the cytotoxicity at 70.5 h is -2.51%. As to `O=C(NC[C@H]1CCCC[C@H]1O)c1ccc2nc(-c3ccco3)[nH]c2c1`, the cytotoxicity at 70.5 h is -1.94%. Next, `CCC(C)CNC(=O)[C@@H]1CCCN1c1nccc(Nc2ccccc2)n1` (stereo not given in full): 1.56%; `CC(=O)N1N=C(c2ccccc2)OC1C(=O)NCCc1ccc(C)cc1` (stereo not given): 0.438%. As for `CC(=O)N1N=C(c2ccccc2)OC1C(=O)NCCc1ccc(Cl)cc1` (stereo not given), the cytotoxicity at 70.5 h is 8.17%.

For `CC(=O)N1N=C(c2ccccc2)OC1C(=O)N(C)Cc1ccccc1` (stereo not given), the cytotoxicity at 70.5 h is -4.44%. Next, `Cc1ccc(C)c(-n2ncc(C(=O)NCC3COC(C)(C)O3)c2N)c1` (stereo not given): 18.9%.

For `CC(C)c1ccc(-n2ncc(C(=O)N(C)C3CCN(C)CC3)c2N)cc1`, the cytotoxicity at 70.5 h was -2.55%. `CC(=O)N1N=C(c2cccs2)OC1C(=O)NCCc1cccc(Cl)c1` (stereo not given): the cytotoxicity at 70.5 h worked out at 28.8%.

`CC(=O)N1N=C(Cc2ccccc2)OC1C(=O)NCC(=O)OC(C)(C)C` (stereo not given): the cytotoxicity at 70.5 h is -4.37%. For the molecule `CC(=O)N1N=C(c2ccco2)OC1C(=O)NCCc1ccc(F)cc1` (stereo not given), the cytotoxicity at 70.5 h was found to be 0.102%. For the molecule `COc1ccc(NC(=O)C2OC(c3cccs3)=NN2C(C)=O)cc1` (stereo not given), the cytotoxicity at 70.5 h is -1.98%. Consider `CC(=O)N1N=C(c2cccs2)OC1C(=O)Nc1ccc(C)cc1` (stereo not given), for which the cytotoxicity at 70.5 h is 1.28%. In the case of `CC(=O)N1N=C(c2cccs2)OC1C(=O)NCc1ccc(C)o1` (stereo not given), the cytotoxicity at 70.5 h is -1.09%. Turning to `Nc1c(N2CCCC2)ncnc1N1CCOCC1`, the cytotoxicity at 70.5 h stood at 20.6%. `CC1CCN(C(=O)c2cnc3cc(C(=O)N(C)C)n(C)c3c2)CC1`: the cytotoxicity at 70.5 h was 6.93%. For the molecule `Nc1c(N2CCOCC2)ncnc1N1CCOCC1`, the cytotoxicity at 70.5 h amounted to 0.518%. With `COc1c(C(=O)N2CCOCC2)cnc2c1c(C)nn2C`, the cytotoxicity at 70.5 h came out at 0.987%.

On to `Cc1nc2cc(C(=O)N(CCC#N)CC3CCCO3)ccc2[nH]1` (stereo not given), for which the cytotoxicity at 70.5 h is -1.19%. As to `CC(C)(Oc1ccc(C(N)=O)cc1)C(=O)N(CCC#N)CC1CCCO1` (stereo not given), the cytotoxicity at 70.5 h came to 6.27%. Take `Cc1nn(-c2ccccc2Cl)c(C)c1CCC(=O)NCCS(C)(=O)=O`: the cytotoxicity at 70.5 h is 1.1%.

Turning to `CC(C)(C)C(=O)CN1Cc2ccccc2NCCC1=O`, the cytotoxicity at 70.5 h came to 0.78%.

On to `O=C1CCNc2cc3c(cc2CN1CC1CC1)OCO3`, for which the cytotoxicity at 70.5 h was 0.558%. With `COC(=O)CN1Cc2cc3c(cc2NCCC1=O)OCO3` the figure was -9.74%. As for `CCCC(O)CN1CC(C)(C)CN(C(=O)c2ccccc2)CC1=O` (stereo not given), the cytotoxicity at 70.5 h is -10.1%. `CC1(C)CNC(=O)CN(C(=O)CCc2ccccc2)C1`: the cytotoxicity at 70.5 h is -3.7%. For the molecule `CCCS(=O)(=O)N1CC(=O)N(CCCc2ccccc2)CC(O)C1` (stereo not given), the cytotoxicity at 70.5 h amounted to 10.8%. For the molecule `O=C1CN(S(=O)(=O)CC(F)(F)F)CC(O)CN1CCCc1ccccc1` (stereo not given), the cytotoxicity at 70.5 h was -3.16%.

On to `COc1ccccc1CN1CC(OC)CN(C(=O)CC(C)C)CC1=O` (stereo not given), for which the cytotoxicity at 70.5 h was -5.03%.

Turning to `COc1ccccc1CN1CC(OC)CN(C(=O)OCC(C)C)CC1=O` (stereo not given), the cytotoxicity at 70.5 h is -3.02%.

With `CCCC(O)CN1CC(C)(C)CN(C(=O)c2ccc(Cl)cc2)CC1=O` (stereo not given), the cytotoxicity at 70.5 h is -9.8%. Regarding `CC1(C)CNC(=O)CN(C(=O)Cc2ccccc2)C1`, the cytotoxicity at 70.5 h is 0.101%. Take `CCCC(O)CN1CC(C)(C)CN(C(=O)c2ccc(SC)cc2)CC1=O` (stereo not given): the cytotoxicity at 70.5 h was -8.02%.

`O=S1(=O)c2cnccc2OC(COc2ccccc2)CN1CC1CC1` (stereo not given): the cytotoxicity at 70.5 h was -1.49%. With `CC(C)(C)CN1CC(COc2ccccc2)Oc2ccncc2S1(=O)=O` (stereo not given) the figure was 10.8%; with `CCOC(=O)[C@H]1[C@@H](O)C(=O)N(C)C12CCN(C(=O)CC(C)C)CC2`, -6.09%. In the case of `CCOC(=O)[C@H]1[C@@H](O)C(=O)N(C)C12CCN(S(=O)(=O)CC)CC2`, the cytotoxicity at 70.5 h was -10.3%. As for `CCOC(=O)[C@H]1[C@@H](O)C(=O)N(C)C12CCN(C(=O)C(CC)CC)CC2`, the cytotoxicity at 70.5 h is -3.26%. On to `CCOC(=O)[C@H]1[C@@H](O)C(=O)N(C)C12CCN(C(=O)CC1CCCC1)CC2`, for which the cytotoxicity at 70.5 h was -3.01%.

Regarding `CCN1CC(CN2CCOCC2)Oc2ncccc2C1=O` (stereo not given), the cytotoxicity at 70.5 h is 13.2%. Consider `O=C1c2cccnc2OC(CN2CCOCC2)CN1Cc1cccs1` (stereo not given), for which the cytotoxicity at 70.5 h was -4.39%. `CCN1Cc2cc3c(cc2NCCC1=O)OCO3`: the cytotoxicity at 70.5 h came out at 6.48%. Take `COCCCN1CC2(CCCCN2C(=O)C2CCCCC2)CC1=O` (stereo not given): the cytotoxicity at 70.5 h was -3.42%. For the molecule `CC(=O)N1CCC2(CC1)C(=O)N(c1ccc(C)nc1)CCN2CC(C)C`, the cytotoxicity at 70.5 h was -4.45%.

Turning to `COc1ncccc1CN1CC[C@H]2O[C@@H](c3nnc(C)o3)CC[C@H]21`, the cytotoxicity at 70.5 h is -6.07%. Consider `CC(C)Cc1cc(NC(=O)c2cccnc2)n(C)n1`, for which the cytotoxicity at 70.5 h is -9.43%.

Regarding `Cn1ccnc1COc1ccc(CN2CCC(C(N)=O)CC2)cc1`, the cytotoxicity at 70.5 h was -11.1%. Next, `Cc1cnn(C2CCCN(C(=O)c3ccc(C(N)=O)cn3)C2)c1` (stereo not given): 3.91%; `CNC(=O)CCNC(=O)CCc1c(C)nc2cc(O)nn2c1C`: -4.97%. As to `CCOc1ccc(Cl)c(C(=O)N2CCN(c3ccncc3)CC2)n1`, the cytotoxicity at 70.5 h is -13.6%. Regarding `O=C(c1ccc2c(c1)OCO2)N1CCC(Nc2cccnn2)CC1`, the cytotoxicity at 70.5 h stood at 9.12%. Take `Cc1ccc(NC2CCN(C(=O)c3ccc4c(c3)CCC4)CC2)nn1`: the cytotoxicity at 70.5 h was -0.715%. Consider `N#Cc1cccc(C(=O)N2CCC(Nc3cccnn3)CC2)c1`, for which the cytotoxicity at 70.5 h is -19.9%. In the case of `Cc1cccc(CNC(=O)CCc2c(C)nc3cc(O)nn3c2C)n1`, the cytotoxicity at 70.5 h is -14%.

Regarding `Cc1oc(C(=O)O)cc1S(=O)(=O)Nc1ccccc1F`, the cytotoxicity at 70.5 h is -11.3%.

As for `Cc1oc(C(=O)O)cc1S(=O)(=O)Nc1cc(F)ccc1F`, the cytotoxicity at 70.5 h is 5.73%. As for `Cc1ccsc1CNC(=O)CCc1c(C)nc2cc(O)nn2c1C`, the cytotoxicity at 70.5 h was -10.8%. With `Cc1nc(CN2CCCN(c3nccs3)CC2)no1` the figure was 10.6%. As for `CCN(CC)CC(=O)N(C)C(c1cccc(F)c1)c1ccccn1` (stereo not given), the cytotoxicity at 70.5 h worked out at 13.5%.

`Cc1ccc(NC2CCN(C(=O)c3sccc3C3CC3)CC2)nn1`: the cytotoxicity at 70.5 h was -8.46%. Consider `COCCN1CCC(NCc2c(F)cccc2F)C1` (stereo not given), for which the cytotoxicity at 70.5 h is -0.0127%. Turning to `CC(C)c1noc(CN2CCCN(Cc3cccs3)CC2)n1`, the cytotoxicity at 70.5 h was -25.6%.

Take `Cc1cc(C2CCCN(C(=O)CCc3cscn3)C2)n[nH]1` (stereo not given): the cytotoxicity at 70.5 h is -19.6%. Next, `CSc1ccc(C(=O)N2CCOCC2c2c(C)nn(C)c2C)o1` (stereo not given): -4.66%. For the molecule `Cc1cc(C(=O)N2CCCC(C)C2)ccc1NCC(=O)N1CCOCC1` (stereo not given), the cytotoxicity at 70.5 h is -2.64%. As for `O=C(Nc1cc(C(F)(F)F)c[nH]c1=O)N1CCSCC1`, the cytotoxicity at 70.5 h is -8.45%. With `CC1CN(CCc2ccccn2)CCN1c1ccc2nncn2n1` (stereo not given) the figure was -3.22%. For the molecule `Cn1cc(C(=O)Nc2cc(F)ccc2OCC2CCCO2)ccc1=O` (stereo not given), the cytotoxicity at 70.5 h was -7.6%. Consider `Cc1ccc(NC2CCN(C(=O)c3cscn3)CC2)nn1`, for which the cytotoxicity at 70.5 h was 0.539%. Take `Cc1nnc2ccc(N3CCN(CCc4ccccn4)CC3)nn12`: the cytotoxicity at 70.5 h is -0.337%. Regarding `NC(=O)c1cc(C2CCCN(C(=O)CCc3ccncc3)C2)n[nH]1` (stereo not given), the cytotoxicity at 70.5 h is -4.91%.

Regarding `Cc1nn(C)c(C)c1C1COCCN1C(=O)CCc1ccccc1` (stereo not given), the cytotoxicity at 70.5 h is -1.71%.

On to `O=C(CCN1CCN(c2ccc3nncn3n2)CC1)N1CCCCC1`, for which the cytotoxicity at 70.5 h was -5.89%. Take `CCN(Cc1ccc2c(c1)OCO2)S(=O)(=O)N(C)C(C)C`: the cytotoxicity at 70.5 h is -1.76%.

As for `CCN(CC)S(=O)(=O)N(C)Cc1ccc2c(c1)OCCO2`, the cytotoxicity at 70.5 h is -2.26%.

On to `CCc1nnc(CN2CCCCC2Cn2cncn2)o1` (stereo not given), for which the cytotoxicity at 70.5 h came out at 10.6%. With `c1ccc(CCN2CCOC(CNc3cccnn3)C2)nc1` (stereo not given) the figure was -12.5%; with `Cc1nc(C2CCCN(C(=O)CCCn3cccn3)C2)sc1C` (stereo not given), -15.3%. With `O=C(O)[C@@H]1CCCN1c1nccc(Nc2ccccc2)n1` the figure was 16%; with `N#Cc1cccc(N2CCCC3(C2)CN(c2ncccn2)CCO3)n1` (stereo not given), -6.81%; with `COCc1n[nH]c2c1CN(C(=O)c1ccncc1)C2`, -10.2%. `O=C(O)c1csc(NCCc2ccccc2)n1`: the cytotoxicity at 70.5 h is -1.2%.
